The values below come from US20120165223A1 (priority 2006, published 2012).

The subject of this experiment is aerobic bacteria. The experiment in a line: Composition of flora in feces of HFA mice: number of aerobic bacteria. The note with it: 7th, 10th and 13th day from the medication, 500 μg/Ml in drinking water. It counts as in vivo. The text has this: For the one week, the feces were picked asceptially with the interval of two to three days. The feces collected of colistin sulfate administeration, 2nd, 4th, 7th, 10th, 13th and 17th days are put in an encapsulated tube and moved to an anaerobic chamber immediately and is put in the PRAS (Prereduced and anaerobically sterilized) TGY medium with the ten times dilution of the weight of feces. The total number of anaerobic bacteria, the number of Bacteroides fragilis and Bifidobacterium spp. of the anaerobic bacteria, the number of aerobic bacteria, and the number of Esherichia coli and Enterococcus spp. of the aerobic bacteria are measured. […] (FIG. 7)

For the substance colistin sulfate, the “Number of aerobic bacteria in feces” value is reported as “decreased”.
